For assay [1], the system named is CO2 responsiveness of phrenic nerve activity. Also noted: species or system cat. The following applies: in vivo.
Assay [2] deals with bulbospinal Aug-I neurons of the VRG. The assay is described as follows: Iontophoresis of DAMGO and opioid receptor blockers on bulbospinal inspiratory (Aug-I) neurons, extracellular recording. In kind it is in vivo, cat. To be noted: for effect of opioid receptor blocker on DAMGO-mediated depression: naloxonazine 50-90 nA (15 neurons), naltrindole 50-100 nA (10 neurons).
Assay [3] concerns D1-dopamine receptors (phrenic nerve activity). Also noted: species or system cat. To be noted: in vivo.

In the case of `Br.C=CCN1CCc2c(cc(O)c(O)c2Cl)C(c2ccccc2)C1` (racemic) [(±)-chloro-APB, (+/−)6-chloro-7,8-dihydroxy-3-allyl-1-phenyl-2,3,4,5-tetrahydro-1H-3-benzazepine hydrobromide], the “sensitivity of PN activity to CO2” value in assay [1] was “did not significantly alter the sensitivity of PN activity to CO2”. With `C[C@@H](NC(=O)[C@@H](N)Cc1ccc(O)cc1)C(=O)NCC(=O)N(C)[C@@H](Cc1ccccc1)C(=O)NCCO` [DAMGO, D-Ala^2,N-Me-Phe^4,Gly-ol^5-Enkephalin], the DAMGO-mediated depression in assay [2] (DAMGO without blocker) was 50-85%. Besides, in assay [2] (after DAMGO iontophoresis), the “time to restoration of control activity during recovery” value was 60 to 90 s. Moreover, in assay [2] (iontophoresis 1-3 minutes, 50-90 nA ejecting currents), the action potential frequency is recorded as 50-85 % of control. Further, in assay [2] (iontophoresis, 25 neurons, pentobarbital-anesthetized cats), the “effect on discharges of Aug-I neurons” value was “depressed discharges of all Aug-I neurons”. For the compound `C=CCN1CC[C@]23c4c5ccc(O)c4O[C@H]2/C(=N/N=C2\CC[C@@]4(O)[C@H]6Cc7ccc(O)c8c7[C@@]4(CCN6CC=C)[C@H]2O8)CC[C@@]3(O)[C@H]1C5` [Naloxonazine], the DAMGO-mediated depression in assay [2] (in the presence of Naloxonazine (50-90 nA)) is recorded as 20-35%. Moreover, the “effect of opioid receptor blocker on DAMGO-mediated depression” value in assay [2] (iontophoresis) is listed as “blocked DAMGO-mediated depression in all neurons tested”. For `Oc1ccc2c3c1O[C@H]1c4[nH]c5ccccc5c4C[C@@]4(O)[C@@H](C2)N(CC2CC2)CC[C@]314` [Naltrindole], the “effect of opioid receptor blocker on DAMGO-mediated depression” value in assay [2] (iontophoresis) is given as “without effect on all neurons tested”.

Consider `CN1CCc2cc(Cl)c(O)cc2[C@@H](c2ccccc2)C1` [R(+)-SCH-23390, (R)(+)-7-chloro-8-hydroxy-3-methyl-1-phenyl-2,3,4,5-tetrahydro-1H-3-benzazepine], for which the “effect of D1 antagonist on D1 agonist effects” value in assay [3] is “blocked D1 agonist effects”.
